# Test results from patent US9040747B2, “Method for producing reduced coenzyme Q10, method for stabilizing same, and composition comprising same” (Kaneka Corporation, priority 2009, dated 2015).
# How the values were obtained:
# [1] = Reduction of oxidized coenzyme Q10 by amino acid in ethanol, HPLC proportion of reduced coenzyme Q10; settings: 78° C., 16 hours, nitrogen atmosphere; for Proportion of reduced coenzyme Q10: Example 1: 6 equivalents amino acid; for Comparative Example 2: proportion of reduced coenzyme Q10: 6 equivalents amino acid
# Experimental: (§1) The purity of reduced coenzyme Q10 and the weight ratio of reduced coenzyme Q10 to oxidized coenzyme Q10 were determined by HPLC analysis in the Examples.
# Crystalline oxidized coenzyme Q10 (0.3 g (i.e., 0.36 mmol)) was added to ethanol (4.5 g). […] The obtained mixtures were stirred and heated at 78° C. for 16 hours under a nitrogen atmosphere.
# [2] = Reduction of oxidized coenzyme Q10 by amino acid in limonene, HPLC proportion of reduced coenzyme Q10; settings: 85° C., 16 hours, nitrogen atmosphere; for proportions of reduced coenzyme Q10: Example 3: 6 equivalents; for Comparative Example 4: proportion of reduced coenzyme Q10: 6 equivalents amino acid
# Experimental: as §1
# (§2) Column: […] C18 (Waters): 250 mm (length)×4.6 mm (inner diameter); mobile phase: C2H5OH:CH3OH=4:3 (v:v); detection wavelength: 210 nm; flow rate: 1 ml/min; retention time for reduced coenzyme Q10: 9.1 min.; retention time for oxidized coenzyme Q10: 13.3 min.
# Crystalline oxidized coenzyme Q10 (0.3 g (i.e. 0.36 mmol)) was added to limonene (4.5 g). Proline (6 equivalents (i.e., 2.16 mmol)) or serine (6 equivalents (i.e. 2.16 mmol)) was separately added thereto. The obtained mixtures were stirred and heated at 85° C. for 16 hours under a nitrogen atmosphere. The reaction solutions were analyzed by HPLC after the reaction.
# (§3) Crystalline oxidized coenzyme Q10 (0.3 g (i.e., 0.36 mmol)) was added to limonene (4.5 g). One of the amino acids (6 equivalents (i.e., 2.16 mmol) each) listed in table 3 was separately added thereto. The obtained mixtures were stirred and heated at 85° C. for 16 hours under a nitrogen atmosphere.
# [3] = Reduction of oxidized coenzyme Q10 by amino acid in Span 80/glycerin/Tween 80/MCT, HPLC proportion of reduced coenzyme Q10; settings: Span 80, glycerin, Tween 80, MCT, 80° C., 16 hours, nitrogen atmosphere; for Proportion of reduced coenzyme Q10: Example 2 / Comparative Example 1: 6 equivalents; for Comparative Example 3: proportion of reduced coenzyme Q10: 6 equivalents amino acid
# Experimental: as §1, §2
# Crystalline oxidized coenzyme Q10 (0.3 g (i.e., 0.36 mmol)) and tryptophan (6 equivalents (i.e., 2.16 mmol)) were added to a liquid mixture of Span 80 (0.4 g), glycerin (0.3 g), Tween 80 (4.9 g), and MCT (1.4 g). The obtained mixture was stirred and heated at 80° C. for 16 hours under a nitrogen atmosphere.
# (§4) Crystalline oxidized coenzyme Q10 (0.3 g (i.e., 0.36 mmol)) was added to a liquid mixture of Span 80 (0.4 g), glycerin (0.3 g), Tween 80 (4.9 g), and MCT (1.4 g). L-cysteine or N-acetylcysteine (6 equivalents (i.e., 2.16 mmol) each) was separately added thereto. The obtained mixtures were stirred and heated at 80° C. for 16 hours under a nitrogen atmosphere.
# as §4, with “One of the amino acids” for “L-cysteine or N-acetylcysteine”, “each) listed in table 3” for “each)”
# [4] = Reduction of oxidized coenzyme Q10 by amino acid in condensed ricinoleate (CR-310)/MCT, HPLC proportion of reduced coenzyme Q10; settings: condensed ricinoleate (CR-310) and MCT, 80° C., 16 hours, nitrogen atmosphere; for Comparative Example 5: proportion of reduced coenzyme Q10: 6 equivalents amino acid
# Experimental: as §1, §2
# Crystalline oxidized coenzyme Q10 (0.3 g (i.e. 0.36 mmol)) and tryptophan (6 equivalents (i.e., 2.16 mmol)) were added to a liquid mixture of condensed ricinoleate (CR-310, Sakamoto Yakuhin Kogyo Co., Ltd.) (3.8 g) and MCT (3.8 g). The obtained mixture was stirred and heated at 80° C. for 16 hours under a nitrogen atmosphere. The reaction solution was analyzed by HPLC after the reaction.
# as §3, with “a liquid mixture of condensed ricinoleate (CR-310, Sakamoto Yakuhin Kogyo Co., Ltd.) (3.8 g) and MCT (3.8” for “limonene (4.5”, “80°” for “85°”
Compound,Proportion of reduced coenzyme Q10 [1] [% by weight],Comparative Example 3: proportion of reduced coenzyme Q10 [3] [%],Comparative Example 4: proportion of reduced coenzyme Q10 [2] [%],Comparative Example 5: proportion of reduced coenzyme Q10 [4] [%],Comparative Example 2: proportion of reduced coenzyme Q10 [1] [%],further results
Lysine•n hydrate,69,–,–,–,–,–
N=C(N)NCCC[C@H](N)C(=O)O [Arginine],35,–,–,–,–,–
O=C(O)[C@@H]1CCCN1 [Proline],6,–,–,–,–,proportions of reduced coenzyme Q10 [2]: 8 % by weight
CC(=O)N[C@@H](CS)C(=O)O [N-acetylcysteine],–,–,–,–,–,Proportion of reduced coenzyme Q10 [3]: 3% by weight
N[C@@H](Cc1c[nH]c2ccccc12)C(=O)O [Tryptophan],21,–,–,–,–,Proportion of reduced coenzyme Q10 [3]: 33% by weight; Proportion of reduced coenzyme Q10 ([4]; Example 4: 6 equivalents): 5 % by weight
N[C@@H](CS)C(=O)O [L-cysteine],–,–,–,–,–,Proportion of reduced coenzyme Q10 [3]: 7% by weight
CC(C)[C@H](N)C(=O)O [Valine],–,0,0,0,1,–
CC[C@H](C)[C@H](N)C(=O)O [Isoleucine],–,1,0,0,1,–
C[C@H](N)C(=O)O [Alanine],–,0,0,0,0,–
N[C@@H](CO)C(=O)O [Serine],5,–,–,–,–,proportions of reduced coenzyme Q10 [2]: 3 % by weight
NCC(=O)O [Glycine],–,0,0,1,0,–
